Where two headings read alike, the source gives them in different places.
What was measured:
cucumber downy mildew [1] = conditions: Table 3, data from Li, J. L. et al. 2020, cited from earlier work
cucumber downy mildew [2] = experiment: Activity in vivo for inhibiting cucumber downy mildew (potting method, greenhouse)
Description: The test and investigation method refers to a SOP-SC-1098 cucumber downy mildew potting method in the fungicide section of Standard operation Specification for testing biological Activity of pesticides written by Kang Zhuo and Gu Baogen.

Phytophthora capsici = experiment: In vitro inhibition of hypha growth of oomycete pathogens (microplate, OD595): Phytophthora capsici; assay type: cell-based; conditions: for inhibition at 0.005 µg/mL / inhibition at 0.05 µg/mL / inhibition at 0.5 µg/mL / inhibition at 5 µg/mL: read-out: inhibitory activity on hypha growth
[3] = tested on: Cucumber downy mildew (Pseudoperonospora cubensis); experiment: Field efficacy test for controlling cucumber downy mildew
Protocol: The test was carried out according to the Guidelines for the Field Efficacy Trials of Pesticides (Part 1): Fungicides Against Downy Mildew of Cucumber (GB/T17980.26-2000). The test site was a mature vegetable base of Hushu in Nanjing, Jiangsu Province. Cucumber downy mildew (Pseudoperonospora cubensis) was used as the target, oxathiapiprolin and Yin Fali were used as control agents. The test crops was cucumber and the variety was ‘Green Core’. The plots were arranged in a randomized block design, with each plot approximately 8 m^2 and each treatment replicated three times. The whole stem and leaf spray was employed, the test was carried out at the early stage of cucumber downy mildew occurrence, and the agents were applied twice consecutively, with the second application 5 days after the first one. The investigation method was to take one investigation point for every row of cucumbers in each treatment district, assess the severity of downy mildew of all leaves of all cucumber plants, and calculate the disease index and the prevention effect.

Phytophthora sojae = experiment: In vitro inhibition of hypha growth of oomycete pathogens (microplate, OD595): Phytophthora sojae; assay type: cell-based; conditions: for inhibition at 0.005 µg/mL / inhibition at 0.05 µg/mL / inhibition at 0.5 µg/mL / inhibition at 5 µg/mL: read-out: inhibitory activity on hypha growth
Phytophthora nicotianae = experiment: In vitro inhibition of hypha growth of oomycete pathogens (microplate, OD595): Phytophthora nicotianae; assay type: cell-based; conditions: for inhibition at 0.005 µg/mL / inhibition at 0.05 µg/mL / inhibition at 0.5 µg/mL / inhibition at 5 µg/mL: Phytophthora nicotianae, read-out: inhibitory activity on hypha growth
Phytophthora infestans = experiment: microbe, parasite or virus in culture; assay type: cell-based; conditions: for inhibition at 0.005 µg/mL / inhibition at 0.05 µg/mL / inhibition at 0.5 µg/mL / inhibition at 5 µg/mL: read-out: inhibitory activity on hypha growth
[4] = 0.005 mg/L, re-screening, Table 2
[5] = 0.02 mg/L, re-screening, Table 2
[6] = 0.078 mg/L, re-screening, Table 2
[7] = 0.312 mg/L, re-screening, Table 2
[8] = 1.25 mg/L, re-screening, Table 2
[9] = after the first pesticide application, 50 mg/L
[10] = after the second pesticide application, 50 mg/L

In the case of CC/C=C/CC(=O)N1CCC(c2nc(C3=NOC(c4c(F)cccc4F)C3)cs2)CC1 (stereo not shown) [comparative 2], the Control effect (cucumber downy mildew [1]; 0.625 mg/L) is given as “D (45% ≤ D < 60%)”, the Control effect (cucumber downy mildew [1]; 2.5 mg/L) is given as “B (75% ≤ B < 90%)” and the Control effect (cucumber downy mildew [1]; 10 mg/L) is given as “A (90% ≤ A ≤ 100%)”.
For CC(C)CCC(=O)N1CCC(c2nc(C3=NOC(c4c(F)cccc4F)C3)cs2)CC1 (stereo not shown) [comparative 1], the Control effect (cucumber downy mildew [1]; 0.625 mg/L) is given as “E (0% ≤ E < 45%)”, the Control effect (cucumber downy mildew [1]; 2.5 mg/L) is given as “B (75% ≤ B < 90%)” and the Control effect (cucumber downy mildew [1]; 10 mg/L) is given as “B (75% ≤ B < 90%)”.
For O=C(CN1CCCC(O)C1)N1CCC(c2nc(C3=NOC(c4c(F)cccc4F)C3)cs2)CC1 (stereo not shown) [comparative 7], the Control effect (cucumber downy mildew [1]; 0.625 mg/L) is listed as “E (0% ≤ E < 45%)”, the Control effect (cucumber downy mildew [1]; 2.5 mg/L) is listed as “E (0% ≤ E < 45%)” and the Control effect (cucumber downy mildew [1]; 10 mg/L) is listed as “E (0% ≤ E < 45%)”.
For Cc1cc(C(F)(F)F)nn1CC(=O)N1CCC(c2nc(C3=NOC(c4c(F)cccc4F)C3)cs2)CC1 (stereo not shown) [OXA, oxathiapiprolin, reference compound], the Control effect (cucumber downy mildew [2]; [4]) was “A (90%≤A≤100%)”, the Control effect (cucumber downy mildew [2]; [5]) was “A (90%≤A≤100%)” and the Control effect (cucumber downy mildew [2]; [6]) was “A (90%≤A≤100%)”. For the same compound, the Control effect (cucumber downy mildew [2]; [7]) was “A (90%≤A≤100%)”, the Control effect (cucumber downy mildew [2]; 0.625 mg/L, Table 3) was “A (90% ≤ A ≤ 100%)” and the Control effect (cucumber downy mildew [2]; [8]) was “A (90%≤A≤100%)”. For the same compound, the Control effect (cucumber downy mildew [2]; 2.5 mg/L, Table 3) was “A (90% ≤ A ≤ 100%)”, the Control effect (cucumber downy mildew [2]; 10 mg/L, Table 3) was “A (90% ≤ A ≤ 100%)” and the inhibition at 0.005 µg/mL (Phytophthora capsici) was 90 to 100%. For the same compound, the inhibition at 0.05 µg/mL (Phytophthora capsici) was 90 to 100%, the inhibition at 0.5 µg/mL (Phytophthora capsici) was 90 to 100% and the inhibition at 5 µg/mL (Phytophthora capsici) was 90 to 100%. For the same compound, the Average control effect [3, 9] was 36.02%, the Average disease index [3, 9] was 5.36 and the Average control effect [3, 10] was 74.87%. It also gave an Average disease index [3, 10] of 8.59, an inhibition at 0.005 µg/mL (Phytophthora sojae) of 90 to 100% and an inhibition at 0.05 µg/mL (Phytophthora sojae) of 90 to 100%. For the same compound, the inhibition at 0.5 µg/mL (Phytophthora sojae) was 90 to 100%, the inhibition at 5 µg/mL (Phytophthora sojae) was 90 to 100% and the inhibition at 0.005 µg/mL (Phytophthora nicotianae) was 90 to 100%. It also gave an inhibition at 0.05 µg/mL (Phytophthora nicotianae) of 90 to 100%, an inhibition at 0.5 µg/mL (Phytophthora nicotianae) of 90 to 100% and an inhibition at 5 µg/mL (Phytophthora nicotianae) of 90 to 100%. The inhibition at 0.005 µg/mL (Phytophthora infestans) was 90 to 100%, the inhibition at 0.05 µg/mL (Phytophthora infestans) was 90 to 100% and the inhibition at 0.5 µg/mL (Phytophthora infestans) was 90 to 100%. The inhibition at 5 µg/mL (Phytophthora infestans) was 90 to 100%.
For CC/C(C)=C/CC(=O)N1CCC(c2nc(C3=NOC(c4c(F)cccc4F)C3)cs2)CC1 (stereo not shown) [comparative 3], the Control effect (cucumber downy mildew [1]; 0.625 mg/L) is given as “E (0% ≤ E < 45%)”, the Control effect (cucumber downy mildew [1]; 2.5 mg/L) is given as “C (60% ≤ C < 75%)” and the Control effect (cucumber downy mildew [1]; 10 mg/L) is given as “A (90% ≤ A ≤ 100%)”.
With CCOC(CC(=O)N1CCC(c2nc(C3=NOC(c4c(F)cccc4F)C3)cs2)CC1)OC (stereo not shown) [II-3] the “efficacy compared with OXA” value (cucumber downy mildew [2]; 0.005 mg/L, in words) was “comparable to that of the control agent OXA”, the Control effect (cucumber downy mildew [2]; [4]) was “A (90%≤A≤100%)” and the Control effect (cucumber downy mildew [2]; [5]) was “A (90%≤A≤100%)”. The “efficacy compared with dimethomorph and cyazofamid” value (cucumber downy mildew [2]; 0.078 mg/L, in words) was “superior to that of dimethomorph and cyazofamid”, the “efficacy compared with oxathiapiprolin” value (cucumber downy mildew [2]; 0.078 mg/L, in words) was “equivalent to that of oxathiapiprolin at the same concentration” and the Control effect (cucumber downy mildew [2]; 0.078 mg/L, re-screening) was no less than 90%. For the same compound, the Control effect (cucumber downy mildew [2]; [6]) was “A (90%≤A≤100%)”, the Control effect (cucumber downy mildew [2]; [7]) was “A (90%≤A≤100%)” and the Control effect (cucumber downy mildew [2]; 0.625 mg/L, Table 3) was “A (90% ≤ A ≤ 100%)”. For the same compound, the Control effect (cucumber downy mildew [2]; 1.25 mg/L, Table 1) was “A (90%≤A≤100%)”, the Control effect (cucumber downy mildew [2]; [8]) was “A (90%≤A≤100%)” and the Control effect (cucumber downy mildew [2]; 2.5 mg/L, Table 3) was “A (90% ≤ A ≤ 100%)”. The Control effect (cucumber downy mildew [2]; 5 mg/L, Table 1) was “A (90%≤A≤100%)”, the Control effect (cucumber downy mildew [2]; 10 mg/L, Table 3) was “A (90% ≤ A ≤ 100%)” and the Control effect (cucumber downy mildew [2]; 20 mg/L, Table 1) was “A (90%≤A≤100%)”. For the same compound, the bactericidal activity (cucumber downy mildew [2]; re-screening, in words) was “excellent bactericidal activity”, the “inhibitory activity compared with OXA” value (Phytophthora capsici; 5, 0.5 and 0.05 mg/L, in words) was “comparable to that of the control agent OXA” and the inhibition at 0.005 µg/mL (Phytophthora capsici) was 90 to 100%. For the same compound, the inhibition at 0.05 µg/mL (Phytophthora capsici) was 90 to 100%, the inhibition at 0.5 µg/mL (Phytophthora capsici) was 90 to 100% and the inhibition at 5 µg/mL (Phytophthora capsici) was 90 to 100%. For the same compound, the “control effect compared with OXA and Yinfali” value ([3]; 50 mg/L, in words) was “better than that of the control agents OXA and Yinfali”, the Average control effect [3, 9] was 66.63% and the Average disease index [3, 9] was 2.80. The Average control effect [3, 10] was 79.72%, the Average disease index [3, 10] was 6.93 and the “effect in controlling cucumber downy mildew in the field” value ([3]; in words) was “good effect in controlling cucumber downy mildew, it can effectively protect new leaves and can effectively inhibit the spread of disease spots on the infected leaves”. The “inhibitory activity compared with OXA” value (Phytophthora sojae; 5, 0.5 and 0.05 mg/L, in words) was “comparable to that of the control agent OXA”, the inhibition at 0.005 µg/mL (Phytophthora sojae) was 75 to 90% and the inhibition at 0.05 µg/mL (Phytophthora sojae) was 90 to 100%. For the same compound, the inhibition at 0.5 µg/mL (Phytophthora sojae) was 90 to 100%, the inhibition at 5 µg/mL (Phytophthora sojae) was 90 to 100% and the inhibition at 0.005 µg/mL (Phytophthora nicotianae) was 90 to 100%. For the same compound, the inhibition at 0.05 µg/mL (Phytophthora nicotianae) was 90 to 100%, the inhibition at 0.5 µg/mL (Phytophthora nicotianae) was 90 to 100% and the inhibition at 5 µg/mL (Phytophthora nicotianae) was 90 to 100%. For the same compound, the “inhibitory activity compared with OXA” value (Phytophthora nicotianae; Pythium nicotianae, 5, 0.5 and 0.05 mg/L, in words) was “comparable to that of the control agent OXA”, the “inhibitory activity compared with OXA” value (Phytophthora infestans; 5, 0.5 and 0.05 mg/L, in words) was “comparable to that of the control agent OXA” and the inhibition at 0.005 µg/mL (Phytophthora infestans) was 75 to 90%. For the same compound, the inhibition at 0.05 µg/mL (Phytophthora infestans) was 90 to 100%, the inhibition at 0.5 µg/mL (Phytophthora infestans) was 90 to 100% and the inhibition at 5 µg/mL (Phytophthora infestans) was 90 to 100%.
For O=C(CCO)N1CCC(c2nc(C3=NOC(c4c(F)cccc4F)C3)cs2)CC1 (stereo not shown) [comparative 4], the Control effect (cucumber downy mildew [1]; 0.625 mg/L) is listed as “E (0% ≤ E < 45%)”, the Control effect (cucumber downy mildew [1]; 2.5 mg/L) is listed as “E (0% ≤ E < 45%)” and the Control effect (cucumber downy mildew [1]; 10 mg/L) is listed as “D (45% ≤ D < 60%)”.
